Test results published in patent US20080070852A1, “3-Beta-D-Ribofuranosylthiazolo[ 4,5-D] Pyridimine Nucleosides and Uses Thereof” (priority 2004, published 2008).
Several values for one entry are separate records, joined by “and”; a condition that tells them apart may be missing. Equal entries are not always repeated. Entries after “also recorded” stand apart in the source; their conditions may differ. Structures can show the parent of a compound that is named as a salt.

Columns and labels:
[1] = in vitro; format: in vitro ADME; settings: human, Caco-2
Description: (§1) See, e.g., Hilgers, A. R. et al., Pharm. Res., 20(8), 1149-55 (August 2003).

[2] = tested on: Caco-2 cells; test: in vitro; format: in vitro ADME; settings: human
Description: as §1

[3] = Systemic exposure to isatoribine after oral administration to beagle dogs; format: in vivo; settings: both 10 and 50 mg/kg
Procedure: The effect of a prodrug (val-isatoribine, 3) on the systemic exposure to isatoribine (1) after oral administration to beagle dogs was investigated. Isatoribine was prepared in sodium bicarbonate solution.
Four male and four female adult beagle dogs weighing between 15 to 27 kg and approximately 1-2 years old were used at the beginning of the study. The animals were divided into 2 groups of 2 males and 2 females each. The test material was administered by gavage on Days 1 and 8, allowing a 7-day washout period between administrations. Blood samples (2 mL) were collected from each animal at predose, 15, 30 minutes, 1, 2, 3, 4, 6, 8 and 10 hours into lithium heparin tubes after each dosing. The plasma was frozen at −70° C. until analysis. The plasma was analyzed for isatoribine by an HPLC-MS/MS assay.

[4] = tested on: beagle dogs; test: Toxicology studies in beagle dogs (GI tolerance); settings: dogs; for Emesis or loose stool / GI lesions or irritation: Oral Val-Isatoribine
Procedure: Formal toxicology studies of intravenously administered isatoribine and orally administered isatoribine and val-isatoribine were conducted in beagle dogs.
In each case the compound was administered as a solution, by gavage or by intravenous infusion. Multiple parameters were assessed, as is customary in a toxicology study. In the studies providing higher potential exposure to isatoribine, the plasma concentration of isatoribine was assessed by a LC/MS method.

[5] = tested on: interferon alpha (Mu-IFN-α); test: Murine interferon alpha in plasma of dosed mice; format: in vivo; settings: for Plasma Concentration of Interferon Alpha (Mu-IFN-α), Mean / Plasma Concentration of Interferon Alpha (Mu-IFN-α), Individual Value: single oral 73.0 mg/kg dose
Description: The normal mouse provides a useful system for the assessment of the degree to which the inventions described herein provide material improvement in the oral delivery of 1 (isatoribine). Not only can one measure the plasma concentrations of isatoribine arising from oral administration of the said prodrug(s) but also the extensive immunological research conducted in the mouse has provided reagents suitable for measuring the levels of interferon alpha, a cytokine of interest reflecting one of the desired biologic activities of isatoribine.
Table 1 records the results of an assay for murine interferon alpha in the plasma of mice that were dosed two times with isatoribine, formulated in bicarbonate, at a level of 50 mg/kg by the oral route.
Table 2 records the results of assays for murine interferon alpha in the plasma of mice that first were dosed with bicarbonate and then four hours later were dosed orally with isatoribine, formulated in bicarbonate, at a level of 50 mg/kg. Interferon was reported in the plasma from four mice, including two that had received the bicarbonate vehicle dose.
Table 3 records the results of assays for murine interferon alpha in the plasma of mice that were dosed orally with val-isatoribine, dissolved in bicarbonate, at a dose that is equivalent to 50/mg/kg of isatoribine on a molar basis. […] Interferon was detected in all mice assayed at a given time point, indicating the reliability of the effect following val-isatoribine administration.
In other experiments, plasma levels of isatoribine and interferon alpha were measured in mice that were dosed with isatoribine by the intravenous route, and these levels were compared to the levels of isatoribine and interferon alpha arising after oral administration of val-isatoribine. […] Thus, oral val-isatoribine provides levels of isatoribine and interferon that are approximately 50% of those observed after intravenous administration of isatoribine itself.

[6] = isatoribine equivalent applied dose 8.1 mg/kg
[7] = isatoribine equivalent applied dose 16 mg/kg
[8] = isatoribine equivalent applied dose 32 mg/kg
[9] = isatoribine equivalent applied dose 64 mg/kg
[10] = oral dosing, studies of Tables 1-3

Nc1ncc2sc(=O)n([C@@H]3O[C@H](CO)[C@@H](O)[C@H]3O)c2n1 [Compound 79, 5-Amino-3-β-D-ribofuranosyl-3H-thiazolo-[4,5-d]pyrimidin-2-one]
Papp A→B [1]: 10 ×10⁻⁶ cm/s
melting point: 220 °C (dec.)

Nc1nc(NC2CCCC2)c2sc(=O)n([C@@H]3O[C@H](CO)[C@@H](O)[C@H]3O)c2n1 [Compound 22, 5-Amino-7-cyclopentylamino-3-β-D-ribofuranosylthiazolo[4,5-d]pyrimidin-2-one]
melting point: > 108 °C (dec.)

CC(C)[C@H](N)C(=O)OC[C@H]1O[C@@H](n2c(=O)sc3c(O)nc(N)nc32)[C@H](O)[C@@H]1O (as salt: hydrochloride) [Compound 3, 5-Amino-3-(5′-O-L-valinyl-β-D-ribofuranosyl)thiazolo[4,5-d]pyrimidine-2,7-dione Dihydrochloride]
melting point: 166 to 168 °C (dec.)

Nc1nc(N2CCCC2)c2sc(=O)n([C@@H]3O[C@H](CO)[C@@H](O)[C@H]3O)c2n1 [Compound 23, 5-Amino-7-pyrrolidino-3-β-D-ribofuranosylthiazolo[4,5-d]pyrimidin-2-one]
melting point: > 112.4 °C (dec.)

CN(C)c1nc(N)nc2c1sc(=O)n2[C@@H]1O[C@H](CO)[C@@H](O)[C@H]1O [Compound 20, 5-Amino-7-dimethylamino-3-β-D-ribofuranosylthiazolo[4,5-d]pyrimidin-2-one]
melting point: > 112 °C

CC(=O)OC[C@H]1O[C@@H](n2c(=O)sc3cnc(N)nc32)[C@H](OC(C)=O)[C@@H]1OC(C)=O [Compound 78, 5-Amino-3-(2′,3′,5′-tri-O-acetyl-β-D-ribofuranosyl)-3H-thiazolo[4,5-d]pyrimidin-2-one]
Caco2 transport compared with 79 [2]: significantly improved transport over 79
Papp A→B [1]: 60 ×10⁻⁶ cm/s
melting point: 121 to 123 °C

Nc1nc(N)c2sc(=O)n([C@@H]3O[C@H](CO)[C@@H](O)[C@H]3O)c2n1 [Compound 15, 5,7-Diamino-3-β-D-ribofuranosylthiazolo[4,5-d]pyrimidin-2-one]
melting point: > 155 °C (dec.)

CNc1nc(N)nc2c1sc(=O)n2[C@@H]1O[C@H](CO)[C@@H](O)[C@H]1O [Compound 18]
melting point: > 108 °C

CC(C)[C@H](N)C(=O)OC[C@H]1O[C@@H](n2c(=O)sc3c(O)nc(N)nc32)[C@H](O)[C@@H]1O [Compound 3, 5-Amino-3-(5′-O-L-valinyl-β-D-ribofuranosyl)thiazolo[4,5-d]pyrimidine-2,7-dione Dihydrochloride]
maximum concentrations of isatoribine compared to isatoribine itself [3]: at least doubled
GI lesions ([4]; oral): No GI lesions were found
Emesis or loose stool [4, 6]: Neg.
GI lesions or irritation [4, 6]: Neg.
Emesis or loose stool [4, 7]: Neg.
GI lesions or irritation [4, 7]: Neg.
Emesis or loose stool [4, 8]: Neg.
GI lesions or irritation [4, 8]: Neg.
Emesis or loose stool [4, 9]: Neg.
GI lesions or irritation [4, 9]: Neg.
GI lesions or irritation ([4]; isatoribine equivalent applied dose 130 mg/kg): Neg.
GI lesions or irritation ([4]; isatoribine equivalent applied dose 260 mg/kg): Neg.
GI lesions or irritation ([4]; isatoribine equivalent applied dose 390 mg/kg): Neg.
increase of magnitude of average and peak interferon response versus isatoribine ([5]; mice, oral): twofold
level of interferon relative to intravenous isatoribine ([5]; mice, oral, 50 mg/kg isatoribine molar equivalent, vs intravenous isatoribine 25 mg/kg, FIG. 1): approximately 50%
interferon in plasma ([5]; mice, oral, equivalent to 50 mg/kg isatoribine): readily measurable at 1.0 hour, 1.5 hours, and 2.0 hours after dosing
Plasma Concentration of Interferon Alpha (Mu-IFN-α), Mean ([5]; mice, 0.00 h): 0.00 pg/mL
Plasma Concentration of Interferon Alpha (Mu-IFN-α), Individual Value ([5]; mice, 0.00 h, listed as Val-Isatoribine, Dihydrochloride, 73 mg/kg): BQL (Below the Quantifiable Limit < 12.5 pg/mL); also recorded: BQL^125 pg/mL; also recorded: BQL^25 pg/mL
Plasma Concentration of Interferon Alpha (Mu-IFN-α), Individual Value ([5]; mice, 0.25 h): BQL (Below the Quantifiable Limit < 12.5 pg/mL)
Plasma Concentration of Interferon Alpha (Mu-IFN-α), Mean ([5]; mice, 0.25 h): 0.00 pg/mL
Plasma Concentration of Interferon Alpha (Mu-IFN-α), Mean ([5]; mice, 0.50 h): 0.00 pg/mL
Plasma Concentration of Interferon Alpha (Mu-IFN-α), Individual Value ([5]; mice, 0.50 h, listed as Val-Isatoribine, Dihydrochloride, 73 mg/kg): BQL^25 pg/mL; also recorded: BQL (Below the Quantifiable Limit < 12.5 pg/mL)
Plasma Concentration of Interferon Alpha (Mu-IFN-α), Mean ([5]; mice, 0.75 h): 0.00 pg/mL
Plasma Concentration of Interferon Alpha (Mu-IFN-α), Individual Value ([5]; mice, 0.75 h, listed as Val-Isatoribine, Dihydrochloride, 73 mg/kg): BQL (Below the Quantifiable Limit < 12.5 pg/mL); also recorded: BQL^25 pg/mL
Plasma Concentration of Interferon Alpha (Mu-IFN-α), Mean ([5]; mice, 1.00 h): 129.1 pg/mL
Plasma Concentration of Interferon Alpha (Mu-IFN-α), Individual Value ([5]; mice, 1.00 h, listed as Val-Isatoribine, Dihydrochloride, 73 mg/kg): 173.2 pg/mL and 125.1 pg/mL and 89.0 pg/mL
Plasma Concentration of Interferon Alpha (Mu-IFN-α), Mean ([5]; mice, 1.50 h): 214.5 pg/mL
Plasma Concentration of Interferon Alpha (Mu-IFN-α), Individual Value ([5]; mice, 1.50 h, listed as Val-Isatoribine, Dihydrochloride, 73 mg/kg): 202.9 pg/mL and 145.9 pg/mL and 294.8 pg/mL
Plasma Concentration of Interferon Alpha (Mu-IFN-α), Mean ([5]; mice, 2.00 h): 108.5 pg/mL
Plasma Concentration of Interferon Alpha (Mu-IFN-α), Individual Value ([5]; mice, 2.00 h, listed as Val-Isatoribine, Dihydrochloride, 73 mg/kg): 49.2 pg/mL and 137.9 pg/mL and 138.3 pg/mL
Plasma Concentration of Interferon Alpha (Mu-IFN-α), Individual Value ([5]; mice, 3.00 h): BQL^25 pg/mL
Plasma Concentration of Interferon Alpha (Mu-IFN-α), Mean ([5]; mice, 3.00 h): 0.00 pg/mL
Plasma Concentration of Interferon Alpha (Mu-IFN-α), Mean ([5]; mice, 4.00 h): 9.20 pg/mL
Plasma Concentration of Interferon Alpha (Mu-IFN-α), Individual Value ([5]; mice, 4.00 h, listed as Val-Isatoribine, Dihydrochloride, 73 mg/kg): BQL^25 pg/mL and 27.6 pg/mL and BQL (Below the Quantifiable Limit < 12.5 pg/mL)
Plasma Concentration of Interferon Alpha (Mu-IFN-α), Mean ([5]; mice, 5.00 h): 0.00 pg/mL
Plasma Concentration of Interferon Alpha (Mu-IFN-α), Individual Value ([5]; mice, 5.00 h, listed as Val-Isatoribine, Dihydrochloride, 73 mg/kg): BQL (Below the Quantifiable Limit < 12.5 pg/mL); also recorded: BQL^25 pg/mL
mice with interferon detected in plasma [5, 10]: 10 of the 30
proportion of mice exhibiting an interferon response [5, 10]: 30%

COc1nc(N)nc2c1sc(=O)n2[C@@H]1O[C@H](CO)[C@@H](O)[C@H]1O [Compound 14, 5-Amino-3-β-D-ribofuranosyl-7-methoxy-thiazolo[4,5-d]pyrimidin-2-one]
melting point: > 160 °C (dec.)

CN[C@H](C(=O)OC[C@H]1O[C@@H](n2c(=O)sc3c(O)nc(N)nc32)[C@H](O)[C@@H]1O)C(C)C (as salt: hydrochloride) [Compound 11, 5-Amino-3-(5′-O-[α-L-N-methylvalinyl]-β-D-ribofuranosyl)thiazolo[4,5-d]pyrimidine-2,7-dione Hydrochloride]
melting point: > 180 °C (dec.)

CC(=O)O[C@@H]1[C@H](OC(C)=O)[C@@H](CO)O[C@H]1n1c(=O)sc2cnc(N)nc21 [Compound 89, 5-Amino-3-(2′,3′-di-O-acetyl-β-D-ribofuranosyl)-3H-thiazolo[4,5-d]pyrimidin-2-one]
Caco2 transport compared with 79 [2]: significantly improved transport over 79
Papp A→B [1]: 20 ×10⁻⁶ cm/s
melting point: 109 to 111 °C
